These results are taken from PMC10660337, “Mutate and Conjugate: A Method to Enable Rapid In-Cell Target Validation” (ACS Chemical Biology, 2023).

The target of experiment [1] is T1, BRD4(1)^WT (Homo sapiens, UniProt O60885).
T1 construct: Characterization of His6-BRD4(1)WT; made in house; host or cells: E. coli BL21 (DE3)
The experiment can be described thus: Fluorescent labeling of purified protein (CuAAC with TAMRA-PEG3-azide, in-gel fluorescence). Type of experiment: binding. To be noted: 50 μM probe, 10 μM protein, 4 h, 37 °C, then CuAAC 1 h. Here is the method:
When 28, 29, 30, and 42 were incubated with either purified BRD4(1)^L94C or BRD4(1)^WT and subjected to a copper(I)-catalyzed alkyne–azide click reaction (CuAAC) reaction with the fluorescent TAMRA-PEG3-azide dye, all clickable probes labeled the mutant protein and could be visualized using fluorescence imaging of a gel (Figure 6).
Figure 6 Clickable probes 28, 29, 30, and 42 covalently label BRD4(1)^L94C and undergo a subsequent CuAAC reaction with TAMRA-PEG3 azide to fluorescently label the protein, as shown by in-gel fluorescence imaging. Compounds 28, 29, 30, 41, and 42 (50 μM) were incubated with purified BRD4(1)^L94C or BRD4(1)^WT (10 μM) for 4 h at 37 °C, followed by CuAAC reaction with TAMRA-PEG3 azide for 1 h and separation of components by SDS-PAGE. For all compounds other than 30, only labeling of BRD4(1)^L94C was observed.
50 mM DMSO stock solutions of the compounds were serially diluted, and dispensed into wells (5 μL).
The protein-peptide mixes (7 μL) for each combination were prepared following the specified final assay concentration (Table S19), and dispensed into wells. […]
Assays were performed in 1.5 mL Eppendorf tubes at room temperature, in the dark, and gently shaken, unless otherwise stated. […] Data was analysed and processed using MassLynx. […]
Gels were imaged for fluorescence using Bio-rad molecular imager and then stained for 15 min with […]

Experiment [2] has as its system BRD4(1,2)^L94C transiently expressed in HEK293T cells. Description: In-cell labeling of tandem bromodomain. Type of experiment: cell-based, human. As to the method: (§1) reaction mix was taken and 8 µL of Lamelli buffer added, and the samples denatured by heating at 95 °C for 10 min. Samples were separated by gel electrophoresis on NuPAGE™ 4–12%, Bis-Tris precast polyacrylamide gels (Thermofisher). Following electrophoresis, gels were stained for 15 min with InstantBlueTM Coomasie® stain (Abcam), destained, and imaged using Bio-rad molecular imager.
(§2) Bio-rad Image Lab 6.1 was used to process the data.
(§3) In-cell target engagement
(§4) In-cell labeling by clickable probes
(§5) Transfected HEK293T cells at ~90% confluency were incubated for 1 h with a DMSO control (0.5% DMSO final concentration) or a click probe (10 µM, 0.5% DMSO final concentration) diluted in Opti- […]
(§6) Cells were then harvested and lysed using the previously described protocol above. The resulting cell lysates were diluted to 2 mg/mL using the previously described protocol above. […]
(§7) Gels were imaged for fluorescence using Bio-rad molecular imager and then stained for 15 min with InstantBlueTM Coomasie® stain (Abcam), destained, and imaged using Bio-rad molecular imager. […]
(§8) Transfected HEK293T cells at ~90% confluency were incubated for 30 min with a DMSO control or varying concentrations of OXFBD04 diluted in Opti-MEM media. […] Cells were then harvested, processed, and analysed using the previously described protocol above. […]

The target of experiment [3] is BRD4(1,2)^WT transiently expressed in HEK293T cells (Homo sapiens, UniProt O60885). The experiment can be described thus: In-cell labeling of tandem bromodomain. It is filed as cell-based. Here is the method:
as §1, §2, §3, §4, §5, §6, §7, §8

In the case of `C#CCOc1ccc(-c2c(C)noc2NC(=O)C=C)cc1` [Compound 30], the “Labeling of purified BRD4(1)^WT, in-gel fluorescence” value in experiment [1] is given as “low level”. As to `C#CCOc1cc(NC(=O)C=C)ccc1N1CCCC1=O` [Compound 42], in experiment [2], the “In-cell labeling of BRD4(1,2)^L94C (fluorescent band ∼80 kDa)” value is reported as “selectively label”. The “In-cell covalent engagement with BRD4(1,2)^WT” value in experiment [3] is “no covalent engagement”.
